# Test results: ChEMBL document CHEMBL1201862, “PubChem BioAssay data set” (2004)
# Activity calls are given as the source filed them.
# What was measured:
# [1] = target: T1, Streptokinase A (Streptococcus pyogenes serotype M1, UniProt P10520); assay: S. pyogenes streptokinase expression inhibitors, potency, dose response, plasminogen activation absorbance, OD405 (AID 1914); assay type: functional, Streptococcus pyogenes M1 GAS;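 note: secreted streptokinase activity via plasminogen activation per viability signal from cell pellet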
# T1 sequence (P10520 whole entry): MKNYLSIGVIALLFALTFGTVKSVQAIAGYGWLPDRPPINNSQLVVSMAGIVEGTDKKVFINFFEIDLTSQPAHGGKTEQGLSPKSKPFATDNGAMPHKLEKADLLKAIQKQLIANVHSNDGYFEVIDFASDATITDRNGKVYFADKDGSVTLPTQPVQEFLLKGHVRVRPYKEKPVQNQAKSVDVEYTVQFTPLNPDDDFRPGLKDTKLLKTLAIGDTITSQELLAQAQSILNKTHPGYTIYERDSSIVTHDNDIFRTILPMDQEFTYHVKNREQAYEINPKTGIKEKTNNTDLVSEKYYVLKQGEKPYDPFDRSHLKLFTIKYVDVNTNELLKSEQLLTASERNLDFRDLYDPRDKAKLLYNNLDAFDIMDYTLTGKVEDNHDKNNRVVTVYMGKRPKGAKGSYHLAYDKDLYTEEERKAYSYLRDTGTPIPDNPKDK
# [2] = test system: Vero; assay: cells; assay type: functional; details: Chlorocebus sabaeus
# [3] = Luminescence Cell-Based Dose Response HTS to Identify Inhibitors of 5'UTR Stem-Loop Driven Prion Protein mRNA Translation in H4 Neuroglioblastoma Cells. [Related pubchem assays: 1827 (Project Summary), 1813 (Primary HTS)]; assay type: functional
# [4] = Luminescence Cell-Based Dose Confirmation HTS to Identify Inhibitors of Polyadenylation.; assay type: functional
# [5] = inhibitors of firefly luciferase expression or activity, dose response, H4 neuroglioma cells, luminescence (AID 1990); assay type: functional, cell-based
# [6] = inhibitors of SNCA 5'UTR-driven reporter translation, confirmation, H4 neuroglioma cells, luminescence (AID 1988); assay type: functional, cell-based
# [7] = test system: Streptococcus; assay: Group A Streptococcus viability loss, dose response, counter-screen for streptokinase expression inhibitor project, luminescence, BacTiterGlo (AID 1915); assay type: functional, organism-based;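 note: potency for reduction of bacterial viability or growth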
# [8] = test system: Streptococcus sp. 'group A'; assay: growth inhibition of control SK(-) GAS strain, dose response, counter-screen for streptokinase expression inhibitor project, luminescence, kanamycin, BacTiterGlo, confirmation (AID 1900); assay type: functional, organism-based
# [9] = target: Peroxisome proliferator-activated receptor gamma/Nuclear receptor coactivator 1 (Homo sapiens, UniProt P37231); assay type: functional;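 note: agonist potency as compounds enhance coactivator SRC-1 recruitment to PPARgamma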
# [10] = target: Peroxisome proliferator-activated receptor gamma/Nuclear receptor coactivator 3 (Homo sapiens, UniProt P37231); assay type: functional;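 note: agonist potency for raising coactivator recruitment to the receptor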
# [11] = target: Peroxisome proliferator-activated receptor gamma/Nuclear receptor coactivator 2 (Homo sapiens, UniProt P37231); assay type: functional;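 note: agonist potency for raising coactivator recruitment to the receptor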
# [12] = target: T2, Bcl-2-like protein 10 (Homo sapiens, UniProt Q9HD36); assay: Biochemical TR3 FP assay of Bcl-B inhibitor potency, EC50 (AID 1243); assay type: functional
# T2 sequence (Q9HD36 whole entry): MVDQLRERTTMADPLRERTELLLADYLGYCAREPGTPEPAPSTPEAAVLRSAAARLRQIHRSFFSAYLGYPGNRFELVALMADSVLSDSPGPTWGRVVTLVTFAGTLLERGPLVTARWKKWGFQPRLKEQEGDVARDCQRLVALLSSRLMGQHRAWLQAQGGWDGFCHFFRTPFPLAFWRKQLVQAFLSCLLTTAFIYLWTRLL
# [13] = target: NS3 (Hepatitis C virus, UniProt A3EZJ3); assay: PubChem AID 2173; design: species or system Hepacivirus hominis
# [14] = target: Cytochrome P450 2C19 (Homo sapiens, UniProt P33261); assay: Cytochrome panel assay with activity outcomes. Panel member name: p450-cyp2c19 Compounds with AC50 equal or less than 10 uM are considered active; assay type: functional; details: read-out: AC50
# [15] = Counterscreen for IDE inhibitors: Luminescence-based cell-based high throughput dose response assay to identify compounds that are cytotoxic to HEK cells. [Related pubchem assays: 434962 (Primary screen (IDE inhibitors in singlicate)), 449730 (Counterscreen (Cytotoxicity in triplicate)), 435028 (Confirmation (IDE inhibitors in triplicate)) …; assay type: functional; details: HEK293
# [16] = target: T3, Insulin-degrading enzyme (Homo sapiens, UniProt P14735); assay: Dose Response: Fluorescence polarization-based cell-based high throughput dose response assay for inhibitors of insulin-degrading enzyme (IDE). [Related pubchem assays: 434962 (Primary screen (IDE inhibitors in singlicate)), 449730 (Counterscreen (Cytotoxicity in triplicate)), 435028 (Confirmation (IDE inhibitors in triplicate)), 434984 (Summary …; assay type: functional
# T3 sequence (P14735 whole entry): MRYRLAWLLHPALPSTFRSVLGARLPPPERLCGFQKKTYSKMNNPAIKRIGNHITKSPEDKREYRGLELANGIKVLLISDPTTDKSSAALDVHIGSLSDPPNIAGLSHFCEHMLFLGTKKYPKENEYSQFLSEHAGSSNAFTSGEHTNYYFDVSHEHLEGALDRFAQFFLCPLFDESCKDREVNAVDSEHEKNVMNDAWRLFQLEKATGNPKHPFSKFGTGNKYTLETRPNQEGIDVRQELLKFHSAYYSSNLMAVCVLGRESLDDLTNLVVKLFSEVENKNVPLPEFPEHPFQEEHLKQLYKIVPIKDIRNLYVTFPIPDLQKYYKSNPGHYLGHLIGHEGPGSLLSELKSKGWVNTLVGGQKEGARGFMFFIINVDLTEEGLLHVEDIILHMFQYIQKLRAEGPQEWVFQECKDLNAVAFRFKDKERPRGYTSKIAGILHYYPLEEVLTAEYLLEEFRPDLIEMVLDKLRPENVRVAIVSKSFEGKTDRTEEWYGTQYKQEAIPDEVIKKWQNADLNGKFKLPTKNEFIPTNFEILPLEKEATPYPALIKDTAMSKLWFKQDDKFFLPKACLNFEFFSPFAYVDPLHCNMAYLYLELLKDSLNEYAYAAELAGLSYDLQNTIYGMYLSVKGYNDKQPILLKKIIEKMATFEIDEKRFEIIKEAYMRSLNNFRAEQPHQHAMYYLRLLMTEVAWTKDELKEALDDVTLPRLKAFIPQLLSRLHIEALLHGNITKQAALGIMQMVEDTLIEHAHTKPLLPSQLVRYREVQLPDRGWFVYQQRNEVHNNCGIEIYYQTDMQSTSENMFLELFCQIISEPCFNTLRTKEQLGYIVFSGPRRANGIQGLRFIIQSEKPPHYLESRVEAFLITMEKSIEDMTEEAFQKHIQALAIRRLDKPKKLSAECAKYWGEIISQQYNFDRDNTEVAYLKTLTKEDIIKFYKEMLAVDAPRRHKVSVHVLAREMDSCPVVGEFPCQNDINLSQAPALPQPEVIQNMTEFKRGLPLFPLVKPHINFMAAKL
# [17] = target: Cytochrome P450 2D6 (Homo sapiens, UniProt P10635);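 note: CYP2D6 member of a cytochrome P450 panel assay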
# [18] = inhibitors of Bluetongue virus cytopathic effect, confirmation, arbovirus, BSR cells (AID 1250); assay type: functional;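 note: protection from viral cytopathic effect measured as cell viability by ATP luminescence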
# [19] = target: T4, Mucolipin-3 (Homo sapiens, UniProt Q8TDD5); assay: Dose response cell-based high-throughput screening assay for agonists of the transient receptor potential channel ML3 (TRPML3). [Related pubchem assays: 1526, 1424, 1448 ]; assay type: functional
# T4 sequence (Q8TDD5 whole entry): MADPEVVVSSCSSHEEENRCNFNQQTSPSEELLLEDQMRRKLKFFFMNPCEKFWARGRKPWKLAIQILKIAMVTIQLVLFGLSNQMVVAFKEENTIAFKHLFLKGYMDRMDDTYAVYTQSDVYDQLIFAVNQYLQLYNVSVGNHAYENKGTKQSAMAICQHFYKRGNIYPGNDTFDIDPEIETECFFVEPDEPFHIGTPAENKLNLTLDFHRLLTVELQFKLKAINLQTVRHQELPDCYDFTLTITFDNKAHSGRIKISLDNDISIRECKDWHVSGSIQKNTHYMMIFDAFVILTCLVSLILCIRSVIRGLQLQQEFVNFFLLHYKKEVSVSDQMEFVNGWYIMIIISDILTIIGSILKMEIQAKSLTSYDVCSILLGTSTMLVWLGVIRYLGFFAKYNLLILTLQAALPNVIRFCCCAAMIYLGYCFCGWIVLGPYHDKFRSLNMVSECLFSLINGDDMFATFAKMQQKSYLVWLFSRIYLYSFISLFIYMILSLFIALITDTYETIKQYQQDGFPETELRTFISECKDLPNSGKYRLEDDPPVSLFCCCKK
# [20] = target: Ion channel NompC (Danio rerio, UniProt Q7T1G6); assay: Fluorescence counterscreen assay for TRPML3 agonists: dose response cell-based high-throughput screening assay to identify agonists of the transient receptor potential channel N1 (TRPN1). [Related pubchem assays: 1526, 1424, 1448 ]; assay type: functional
# [21] = target: T5, Leucine aminopeptidase (Plasmodium falciparum 3D7, UniProt Q8IL11); assay: P. falciparum M17LAP inhibitors, primary screen, biochemical, fluorogenic H-Leu-NHMec substrate, 1536-well (AID 1619); assay type: functional
# T5 sequence (Q8IL11 whole entry): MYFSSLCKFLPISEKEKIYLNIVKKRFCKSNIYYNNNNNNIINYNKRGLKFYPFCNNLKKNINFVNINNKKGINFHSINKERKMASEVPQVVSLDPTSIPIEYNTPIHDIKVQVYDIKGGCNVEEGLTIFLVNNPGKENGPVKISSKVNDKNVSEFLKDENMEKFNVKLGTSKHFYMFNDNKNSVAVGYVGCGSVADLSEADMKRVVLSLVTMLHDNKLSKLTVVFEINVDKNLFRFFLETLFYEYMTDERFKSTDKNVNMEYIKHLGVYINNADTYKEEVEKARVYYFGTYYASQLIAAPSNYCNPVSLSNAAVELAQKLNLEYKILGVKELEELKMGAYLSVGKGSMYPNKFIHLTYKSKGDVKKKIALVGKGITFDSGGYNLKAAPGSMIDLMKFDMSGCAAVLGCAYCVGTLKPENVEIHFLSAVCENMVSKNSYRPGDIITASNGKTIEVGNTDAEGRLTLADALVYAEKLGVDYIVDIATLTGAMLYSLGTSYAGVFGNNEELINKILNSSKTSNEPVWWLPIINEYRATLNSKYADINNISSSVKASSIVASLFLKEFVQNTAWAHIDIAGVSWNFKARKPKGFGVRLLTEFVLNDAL
# [22] = target: T6, NADPH oxidase 1 (Homo sapiens, UniProt Q9Y5S8); assay type: functional, cell-based;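 note: Cell-based assay with luminescence read-out, IC50 derived from inhibitor dose-response curves; intracellular ROS from endogenous NOX1 in intact HT29 colon cancer cells; potency of inhibitors that lower the ROS luminescence signal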
# T6 sequence (Q9Y5S8 whole entry): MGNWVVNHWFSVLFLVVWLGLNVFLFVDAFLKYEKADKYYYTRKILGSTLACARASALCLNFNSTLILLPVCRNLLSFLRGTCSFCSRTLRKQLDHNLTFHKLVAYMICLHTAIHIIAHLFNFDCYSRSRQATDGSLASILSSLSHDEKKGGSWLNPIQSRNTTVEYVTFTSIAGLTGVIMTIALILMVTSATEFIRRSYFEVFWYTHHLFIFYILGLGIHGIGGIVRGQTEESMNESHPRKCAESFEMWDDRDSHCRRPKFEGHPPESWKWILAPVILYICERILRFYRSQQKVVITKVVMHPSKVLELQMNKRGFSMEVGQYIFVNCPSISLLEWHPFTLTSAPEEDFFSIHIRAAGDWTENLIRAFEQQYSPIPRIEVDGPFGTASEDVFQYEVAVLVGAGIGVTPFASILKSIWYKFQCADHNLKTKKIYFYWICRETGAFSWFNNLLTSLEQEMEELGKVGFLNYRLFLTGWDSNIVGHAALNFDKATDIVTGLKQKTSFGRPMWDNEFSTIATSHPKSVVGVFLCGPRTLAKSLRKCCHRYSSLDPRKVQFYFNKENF
# Peroxisome proliferator-activated receptor gamma/Nuclear receptor coactivator 2, sequence (P37231 whole entry): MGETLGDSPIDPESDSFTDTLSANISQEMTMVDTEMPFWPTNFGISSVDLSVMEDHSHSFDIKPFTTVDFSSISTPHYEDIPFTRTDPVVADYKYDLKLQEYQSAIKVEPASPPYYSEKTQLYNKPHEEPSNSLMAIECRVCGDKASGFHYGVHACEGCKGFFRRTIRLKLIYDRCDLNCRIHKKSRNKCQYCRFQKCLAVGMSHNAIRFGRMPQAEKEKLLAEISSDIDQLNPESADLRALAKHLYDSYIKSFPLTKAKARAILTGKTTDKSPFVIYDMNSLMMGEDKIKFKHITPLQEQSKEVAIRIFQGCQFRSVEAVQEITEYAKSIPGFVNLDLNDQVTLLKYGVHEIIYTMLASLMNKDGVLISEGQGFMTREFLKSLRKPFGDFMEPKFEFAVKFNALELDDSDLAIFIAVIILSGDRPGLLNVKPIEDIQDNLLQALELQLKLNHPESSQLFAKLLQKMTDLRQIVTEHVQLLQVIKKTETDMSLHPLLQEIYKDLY
# Peroxisome proliferator-activated receptor gamma/Nuclear receptor coactivator 2, sequence (Q15596 whole entry, further chain): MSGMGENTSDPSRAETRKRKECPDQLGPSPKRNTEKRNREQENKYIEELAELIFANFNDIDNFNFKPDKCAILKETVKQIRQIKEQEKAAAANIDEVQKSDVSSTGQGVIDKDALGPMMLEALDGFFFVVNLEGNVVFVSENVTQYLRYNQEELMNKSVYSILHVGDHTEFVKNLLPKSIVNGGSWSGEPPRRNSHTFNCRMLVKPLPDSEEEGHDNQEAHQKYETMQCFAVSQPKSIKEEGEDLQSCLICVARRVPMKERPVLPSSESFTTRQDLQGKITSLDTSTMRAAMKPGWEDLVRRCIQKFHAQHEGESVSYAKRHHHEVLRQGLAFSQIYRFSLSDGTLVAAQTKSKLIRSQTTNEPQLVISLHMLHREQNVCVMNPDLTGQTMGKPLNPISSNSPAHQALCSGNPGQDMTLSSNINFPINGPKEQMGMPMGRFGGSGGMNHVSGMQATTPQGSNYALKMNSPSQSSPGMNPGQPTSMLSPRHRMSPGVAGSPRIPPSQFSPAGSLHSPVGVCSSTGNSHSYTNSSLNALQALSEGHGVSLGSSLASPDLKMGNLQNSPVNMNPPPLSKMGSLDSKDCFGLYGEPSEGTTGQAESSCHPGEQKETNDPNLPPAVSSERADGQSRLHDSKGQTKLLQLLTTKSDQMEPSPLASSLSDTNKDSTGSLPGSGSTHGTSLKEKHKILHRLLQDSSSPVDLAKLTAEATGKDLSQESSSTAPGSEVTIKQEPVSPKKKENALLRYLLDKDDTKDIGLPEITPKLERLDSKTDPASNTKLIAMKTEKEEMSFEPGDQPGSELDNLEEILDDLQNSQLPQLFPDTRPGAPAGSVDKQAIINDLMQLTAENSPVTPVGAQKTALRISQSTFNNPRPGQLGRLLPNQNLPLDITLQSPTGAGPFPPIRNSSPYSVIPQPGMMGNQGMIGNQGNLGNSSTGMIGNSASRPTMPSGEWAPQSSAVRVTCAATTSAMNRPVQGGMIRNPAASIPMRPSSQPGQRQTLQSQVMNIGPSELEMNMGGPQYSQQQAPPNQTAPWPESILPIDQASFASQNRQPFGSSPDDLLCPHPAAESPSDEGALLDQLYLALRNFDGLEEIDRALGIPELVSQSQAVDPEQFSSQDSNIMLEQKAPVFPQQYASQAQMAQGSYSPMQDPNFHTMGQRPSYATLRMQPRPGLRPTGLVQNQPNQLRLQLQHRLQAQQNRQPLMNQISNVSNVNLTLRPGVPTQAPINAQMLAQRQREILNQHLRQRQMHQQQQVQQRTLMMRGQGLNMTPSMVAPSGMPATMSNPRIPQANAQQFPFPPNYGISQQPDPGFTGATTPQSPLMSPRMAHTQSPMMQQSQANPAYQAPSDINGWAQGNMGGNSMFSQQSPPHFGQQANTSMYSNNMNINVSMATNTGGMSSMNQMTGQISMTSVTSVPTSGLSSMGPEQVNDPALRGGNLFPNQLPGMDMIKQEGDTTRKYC
# Peroxisome proliferator-activated receptor gamma/Nuclear receptor coactivator 1, sequence (P37231 whole entry): as the sequence (P37231 whole entry) above
# Peroxisome proliferator-activated receptor gamma/Nuclear receptor coactivator 1, sequence (Q15788 whole entry, further chain): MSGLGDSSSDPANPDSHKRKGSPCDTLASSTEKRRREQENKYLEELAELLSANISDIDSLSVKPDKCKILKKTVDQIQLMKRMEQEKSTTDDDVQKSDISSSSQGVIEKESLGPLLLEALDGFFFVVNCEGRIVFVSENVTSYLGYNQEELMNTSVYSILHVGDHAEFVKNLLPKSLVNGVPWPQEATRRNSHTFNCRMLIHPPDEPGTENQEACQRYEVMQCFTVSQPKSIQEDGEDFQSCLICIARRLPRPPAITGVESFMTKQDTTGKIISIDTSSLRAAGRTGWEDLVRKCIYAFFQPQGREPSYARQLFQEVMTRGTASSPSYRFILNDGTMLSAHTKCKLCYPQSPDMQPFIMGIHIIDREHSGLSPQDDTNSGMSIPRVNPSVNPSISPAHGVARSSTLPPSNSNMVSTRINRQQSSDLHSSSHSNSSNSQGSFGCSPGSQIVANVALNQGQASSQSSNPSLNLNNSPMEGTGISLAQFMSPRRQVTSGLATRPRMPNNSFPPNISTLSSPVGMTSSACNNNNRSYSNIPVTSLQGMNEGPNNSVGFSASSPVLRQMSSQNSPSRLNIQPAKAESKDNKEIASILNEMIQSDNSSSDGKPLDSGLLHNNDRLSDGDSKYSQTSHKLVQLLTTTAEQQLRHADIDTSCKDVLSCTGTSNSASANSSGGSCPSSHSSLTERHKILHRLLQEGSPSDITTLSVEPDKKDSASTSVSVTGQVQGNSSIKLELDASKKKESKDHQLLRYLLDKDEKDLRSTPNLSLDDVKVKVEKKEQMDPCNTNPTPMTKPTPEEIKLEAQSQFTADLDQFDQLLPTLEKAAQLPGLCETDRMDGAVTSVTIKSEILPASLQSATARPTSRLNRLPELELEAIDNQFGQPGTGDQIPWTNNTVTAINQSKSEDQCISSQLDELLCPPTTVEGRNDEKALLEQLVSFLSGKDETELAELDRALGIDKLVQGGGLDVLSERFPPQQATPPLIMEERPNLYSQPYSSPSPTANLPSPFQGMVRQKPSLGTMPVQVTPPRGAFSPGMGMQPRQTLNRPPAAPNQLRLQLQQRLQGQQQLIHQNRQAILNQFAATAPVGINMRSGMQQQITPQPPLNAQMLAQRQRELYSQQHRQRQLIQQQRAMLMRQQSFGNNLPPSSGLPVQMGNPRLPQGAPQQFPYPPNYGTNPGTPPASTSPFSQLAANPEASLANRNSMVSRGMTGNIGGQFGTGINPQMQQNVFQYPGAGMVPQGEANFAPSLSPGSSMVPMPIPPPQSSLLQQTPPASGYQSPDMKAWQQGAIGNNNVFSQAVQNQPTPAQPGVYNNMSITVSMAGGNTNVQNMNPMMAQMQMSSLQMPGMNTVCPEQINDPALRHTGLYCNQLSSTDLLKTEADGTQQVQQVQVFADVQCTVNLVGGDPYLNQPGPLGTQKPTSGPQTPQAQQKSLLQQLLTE
# Cytochrome P450 2D6, sequence (P10635 whole entry): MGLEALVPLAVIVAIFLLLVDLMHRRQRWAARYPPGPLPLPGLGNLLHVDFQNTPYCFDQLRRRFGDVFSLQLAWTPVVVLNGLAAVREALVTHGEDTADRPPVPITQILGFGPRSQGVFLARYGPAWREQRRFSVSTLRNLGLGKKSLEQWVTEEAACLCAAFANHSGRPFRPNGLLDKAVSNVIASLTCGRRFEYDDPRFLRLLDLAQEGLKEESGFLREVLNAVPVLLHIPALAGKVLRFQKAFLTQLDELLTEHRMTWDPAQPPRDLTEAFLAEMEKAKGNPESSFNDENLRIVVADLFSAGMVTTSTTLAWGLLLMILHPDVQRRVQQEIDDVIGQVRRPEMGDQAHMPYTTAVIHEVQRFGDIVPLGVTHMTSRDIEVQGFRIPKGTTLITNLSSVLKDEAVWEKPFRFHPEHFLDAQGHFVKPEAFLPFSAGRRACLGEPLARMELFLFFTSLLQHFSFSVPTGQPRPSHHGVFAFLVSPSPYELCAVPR
# Cytochrome P450 2C19, sequence (P33261 whole entry): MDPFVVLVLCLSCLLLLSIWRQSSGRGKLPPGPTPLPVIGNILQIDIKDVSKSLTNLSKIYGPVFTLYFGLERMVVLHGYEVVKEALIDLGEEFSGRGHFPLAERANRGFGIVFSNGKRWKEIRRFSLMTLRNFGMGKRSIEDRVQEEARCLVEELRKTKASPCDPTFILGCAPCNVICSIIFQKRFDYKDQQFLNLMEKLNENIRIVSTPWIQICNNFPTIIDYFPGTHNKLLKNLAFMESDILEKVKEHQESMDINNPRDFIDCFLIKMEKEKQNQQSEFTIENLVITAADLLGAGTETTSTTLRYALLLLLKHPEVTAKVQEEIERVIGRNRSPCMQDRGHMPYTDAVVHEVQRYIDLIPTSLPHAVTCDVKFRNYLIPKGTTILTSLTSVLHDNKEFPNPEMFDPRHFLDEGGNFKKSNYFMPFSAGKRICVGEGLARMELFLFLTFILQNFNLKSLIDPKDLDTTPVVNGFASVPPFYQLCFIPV
compound,measurement,setting,value
Cc1c(C(=O)Nc2nonc2-c2ccc(F)cc2)oc2ccc(F)cc12,EC50,[1],27.7 µM (active)
same,CC50,[2],6.89 µM (active)
same,EC50,[3],12.9 µM (active)
same,EC50,[4],> 120 µM (not active)
same,EC50,[5],> 120 µM (not active)
same,EC50,[6],> 120 µM (not active)
same,EC50,[7],> 150 µM (not active)
same,EC50,[8],3.52 µM (active)
COc1ccc(C(N)=NOC(=O)CN(C)S(=O)(=O)c2ccc(C)cc2)cc1,EC50,[9],> 79.4 µM (not active)
same,EC50,[10],> 79.4 µM (not active)
same,EC50,[11],> 79.4 µM (not active)
O=C(O)c1cccc2c1NC(c1ccc([N+](=O)[O-])cc1)C1CC=CC21 (stereo not drawn),EC50,[12],5.41 µM (active)
O=C1C(=Cc2cn(Cc3ccc(Cl)cc3)c3ccccc23)C(=O)c2ccccc21,EC50,[12],14.4 µM (active)
O=C(O)c1cccc(-n2c(/C=C/c3ccccc3)nc3ccccc3c2=O)c1,IC50,[13],12.3 µM (not active)
CC(=O)c1cc(NC(=O)c2ccccc2)c(=O)oc1/C=C/N(C)C,AC50,[14],39.8 µM (inconclusive)
same,IC50,[15],> 55.7 µM (not active)
same,IC50,[16],8.93 µM (active)
same,AC50,[17],0.178 µM (inconclusive)
COc1ccc2oc3cc(C)[n+]([O-])c(-c4ccc(Cl)cc4)c3c2c1,IC50,[18],> 100 µM (active)
COC(=O)c1sccc1NC(=O)c1ccc(Br)s1,EC50,[9],8.67 µM (active)
same,EC50,[10],12.2 µM (not active)
same,EC50,[11],< 8.82 µM (active)
Cc1ccc(S(=O)(=O)N2CCC(=O)N(C(COCc3ccc(C(F)(F)F)cc3)C(C)C)CC2)cc1 (stereo not drawn),EC50,[19],3.92 µM (active)
same,EC50,[20],> 29.9 µM (not active)
O=C(/C=C/c1ccco1)Nc1cc(Cl)ccc1C(=O)O,IC50,[18],36.7 µM (active)
same,IC50,[21],74.4 µM (active)
c1ccc(-c2nc(-c3ccccc3)c(-c3ccccc3)[nH]2)cc1,IC50,[22],> 17 µM (not active)
COc1ccc2c(c1)Nc1ccccc1S2,IC50,[22],0.913 µM (active)
